{
  "source": "patent US9828373B2",
  "about": "“2-amino-pyrido[2,3-D]pyrimidin-7(8H)-one derivatives as CDK inhibitors and uses thereof” (SUNSHINE LAKE PHARMA CO., LTD., priority 2014, dated 2017)",
  "key": {"CDK4/CycD3": {"biological_target": "CDK4/CycD3 (Homo sapiens, UniProt P11802)", "sequence (P11802 whole entry, species assumed)": "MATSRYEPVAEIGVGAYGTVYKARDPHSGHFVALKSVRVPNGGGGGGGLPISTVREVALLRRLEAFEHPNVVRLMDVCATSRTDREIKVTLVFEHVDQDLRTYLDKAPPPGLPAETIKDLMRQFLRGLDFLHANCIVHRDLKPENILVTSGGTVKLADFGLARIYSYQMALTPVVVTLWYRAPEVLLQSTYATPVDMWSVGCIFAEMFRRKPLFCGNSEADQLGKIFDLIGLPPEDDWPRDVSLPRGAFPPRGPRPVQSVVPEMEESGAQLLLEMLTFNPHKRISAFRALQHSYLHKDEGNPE", "sequence (P30281 whole entry partner, species assumed)": "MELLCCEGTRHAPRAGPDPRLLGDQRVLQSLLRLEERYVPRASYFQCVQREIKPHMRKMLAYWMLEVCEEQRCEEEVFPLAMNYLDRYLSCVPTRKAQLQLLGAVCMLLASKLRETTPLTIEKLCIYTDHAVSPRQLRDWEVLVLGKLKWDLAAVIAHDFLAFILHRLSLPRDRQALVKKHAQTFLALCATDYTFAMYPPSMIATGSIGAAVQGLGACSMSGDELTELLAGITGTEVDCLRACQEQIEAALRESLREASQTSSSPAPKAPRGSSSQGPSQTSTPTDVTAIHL", "experiment": "Enzymatic inhibitory activity in vitro, CDK4 (Caliper mobility shift, FAM-labeled peptide)", "format": "biochemical", "from_the_text": "(§1) The materials are used in the following assay:\n(§2) HEPES: 4-(2-Hydroxyethyl)piperazine-1-ethanesulfonic acid; Brij-35: Polyethylene Glycol Monoisotridecyl Ether; DTT: Dithiothreitol; EDTA: Ethylene Diamine Tetraacetic Acid; CDK4/CycD3: Cyclin dependent kinase 4; CDK6/CycD3: Cyclin dependent kinase 6; Peptide FAM-P22: fluorescein-labeled peptide 22; ATP: adenosine triphosphate; DMSO: dimethyl sulfoxide; Staurosporine; Coating Reagent #3;\n(§3) 1. Preparation of 1× Kinase Base Buffer and Stop Buffer:\n(§4) (1) 1× Kinase buffer without MnCl2 (50 mM HEPES, pH 7.5, 0.0015% Brij-35, 10 mM MgCl2, 2 mM DTT); (2) Stop buffer (100 mM HEPES, pH 7.5, 0.015% Brij-35, 0.2% Coating Reagent #3, 50 mM EDTA).\n(§5) (1) The compound was diluted to 50× of the final desired highest inhibitor concentration in reaction by 100% DMSO. Transferring 100 μL of this compound dilution to a well in a 96-well plate. (2) The compound was diluted by transferring 20 μL of the compound dilution to 60 μL of 100% DMSO in the next well and so forth for a total of 10 concentrations. (3) 100 μL of 100% DMSO was added to two empty wells for no compound control and no enzyme control. (4) Intermediate plate was prepared by transferring 10 μL of compound from source plate to a new 96-well plate and adding 90 μL of 1× kinase buffer to each well of the intermediate plate. The compounds in intermediate plate were mixed for 10 min on shaker. (5) Assay plate was prepared by transferring 5 μL of each well from the 96-well intermediate plate to a 384-well plate in duplicates.\n(§6) (1) 2.5× Enzyme solution was prepared by adding kinase in 1× kinase base buffer. (2) 2.5× Peptide solution was prepared by adding FAM-labeled peptide and ATP in the 1× kinase base buffer. (3) 2.5× Enzyme solution was transferred to the assay plate contained 5 μL of compound in 10% DMSO, which was incubated at room temperature for 10 min. (4) 10 μL of 2.5× […] solution was added to each well of the 384-well assay plate. (5) Kinase reaction and stopping, after incubating at 28° C. for specified period of time, 25 μL of stop buffer was added to stop reaction.\n(§7) 4. Caliper Reading, Collect Data on Caliper.\n(§8) (1) Copying conversion data from Caliper program; (2) Converting conversion values to inhibition values: Percent inhibition=(max−conversion)/(max−min)*100; “max” means the value of control without compound; “min” means the value of control without enzyme; (3) Fitting the data in XLfit to obtain IC50 values."}, "CDK6/CycD3": {"biological_target": "CDK6/CycD3 (Homo sapiens, UniProt Q00534)", "sequence (Q00534 whole entry, species assumed)": "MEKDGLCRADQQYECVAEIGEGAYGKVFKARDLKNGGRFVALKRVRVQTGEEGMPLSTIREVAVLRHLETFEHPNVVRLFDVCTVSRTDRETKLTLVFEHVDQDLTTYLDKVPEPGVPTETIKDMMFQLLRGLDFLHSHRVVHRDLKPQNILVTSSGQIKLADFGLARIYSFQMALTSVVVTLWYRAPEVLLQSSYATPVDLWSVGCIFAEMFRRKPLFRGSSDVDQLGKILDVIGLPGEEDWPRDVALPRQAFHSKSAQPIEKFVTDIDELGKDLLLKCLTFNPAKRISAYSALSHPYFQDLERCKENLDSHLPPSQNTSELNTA", "sequence (P30281 whole entry partner, species assumed)": "as the sequence (P30281 whole entry partner, species assumed) above", "experiment": "Enzymatic inhibitory activity in vitro, CDK6 (Caliper mobility shift, FAM-labeled peptide)", "format": "biochemical", "from_the_text": "as §1, §2, §3, §4, §5, §6, §7, §8"}, "[1]": {"experiment": "Pharmacokinetics in rats (iv and oral, plasma LC-MS/MS)", "format": "in vivo, male SD rats", "conditions": "rat", "from_the_text": "The assay agents and samples are as shown below:\nPropranolol: Propranolol (internal standard); MTBE: Methyl Tertiary Butyl Ether; Cremophor EL: polyoxyethylated castor oil; KolliphorHS 15: polyethylene glycol 12-hydroxystearate; DMSO: dimethylsulfoxide; PEG400: polyethylene glycol 400; 18 male SD rats.\nEach test compound prepared was completely dissolved in a mixture of 5% DMSO+10% KolliphorHS 15+35% Saline or 5% DMSO+60% PEG400+35% Saline according solubility property thereof.\nGrouping male SD rats weighing 190-250 g randomly to two groups; one group was administered with test compound at a dose of 1.0 mg/kg by intravenous injection, the other group was administered with test compound at a dose of 5.0 mg/kg by oral. After administering, blood samples of intravenous injection group were collected at time points of 0.0833, 0.25, 0.5, 1, 2, 5, 7 and 24 h from caudal vein; blood samples of oral group were collected at time points of 0.25, 0.5, 1, 2, 5, 7 and 24 h from caudal vein. Standard curve was plotted based on concentrations of the samples in a suitable range, the concentrations of test compounds in plasma samples were determined by using LC-MS/MS. Pharmacokinetic parameters were calculated according to drug concentration-time curve using a noncompartmental method by WinNonLin 6.3 software."}},
  "note": "Where two headings read alike, the source gives them in different places.",
  "data": [
    {"molecule": "CC(=O)c1c(C)c2cnc(Nc3ccc4c(n3)CCN(C3CCNCC3)C4)nc2n(C2CCCC2)c1=O", "note": "[Example 39]", "values": [
      {"measurement": "IC50", "setting": "CDK4/CycD3", "value": 14, "unit": "nM"},
      {"measurement": "IC50", "setting": "CDK6/CycD3", "value": 51, "unit": "nM"}
    ]},
    {"molecule": "CC(=O)c1c(C)c2cnc(Nc3ncnc4c(C5=CCNCC5)csc34)nc2n(C2CCCC2)c1=O", "note": "[Example 2, 6-Acetyl-8-cyclopentyl-5-methyl-2-((7-(1,2,3,6-tetrahydropyridin-4-yl)thieno[3,2-d]pyrimidin-4-yl)amino)pyrido[2,3-d]pyrimidin-7(8H)-one]", "values": [
      {"measurement": "IC50", "setting": "CDK4/CycD3", "value": 2390, "unit": "nM"},
      {"measurement": "IC50", "setting": "CDK6/CycD3", "value": 4810, "unit": "nM"}
    ]},
    {"molecule": "CC(=O)c1c(C)c2cnc(Nc3ccc(N4CCNCC4)cn3)nc2n(C2CCCC2)c1=O", "note": "[Palbociclib, reference compound]", "values": [
      {"measurement": "AUC(0-inf)", "setting": "[1]; plasma, male SD rats, iv, 1.0 mg/kg, read-out: AUCINF", "value": 332, "unit": "ng·h/mL"},
      {"measurement": "AUC(0-t)", "setting": "[1]; plasma, male SD rats, iv, 1.0 mg/kg, read-out: AUClast", "value": 294, "unit": "ng·h/mL"},
      {"measurement": "Cmax", "setting": "[1]; plasma, male SD rats, iv, 1.0 mg/kg, read-out: Cmax", "value": 143, "unit": "ng/mL"},
      {"measurement": "half-life", "setting": "[1]; plasma, male SD rats, iv, 1.0 mg/kg, read-out: T1/2 (converted)", "value": 2.72, "unit": "h"},
      {"measurement": "Tmax", "setting": "[1]; plasma, male SD rats, iv, 1.0 mg/kg, read-out: Tmax", "value": 0.083, "unit": "h"},
      {"measurement": "bioavailability", "setting": "[1]; plasma, male SD rats, po 5.0 mg/kg versus iv 1.0 mg/kg, read-out: F (%)", "value": 79.9, "unit": "%"},
      {"measurement": "AUC(0-inf)", "setting": "[1]; plasma, male SD rats, po, 5.0 mg/kg, read-out: AUCINF", "value": 1400, "unit": "ng·h/mL"},
      {"measurement": "AUC(0-t)", "setting": "[1]; plasma, male SD rats, po, 5.0 mg/kg, read-out: AUClast", "value": 1280, "unit": "ng·h/mL"},
      {"measurement": "Cmax", "setting": "[1]; plasma, male SD rats, po, 5.0 mg/kg, read-out: Cmax", "value": 156, "unit": "ng/mL"},
      {"measurement": "half-life", "setting": "[1]; plasma, male SD rats, po, 5.0 mg/kg, read-out: T1/2 (converted)", "value": 4.28, "unit": "h"},
      {"measurement": "Tmax", "setting": "[1]; plasma, male SD rats, po, 5.0 mg/kg, read-out: Tmax", "value": 2.67, "unit": "h"}
    ]},
    {"molecule": "CC(=O)c1c(C)c2cnc(Nc3ccc4c(n3)CCN(C(=O)CO)C4)nc2n(C2CCCC2)c1=O", "note": "[Example 4, 6-Acetyl-8-cyclopentyl-2-((6-(2-hydroxyacetyl)-5,6,7,8-tetrahydro-1,6-naphthyridin-2-yl)amino)-5-methylpyrido[2,3-d]pyrimidin-7(8H)-one]", "values": [
      {"measurement": "IC50", "setting": "CDK4/CycD3", "value": 17, "unit": "nM"},
      {"measurement": "IC50", "setting": "CDK6/CycD3", "value": 62, "unit": "nM"}
    ]},
    {"molecule": "CC(=O)c1c(C)c2cnc(Nc3ccc4c(n3)CCN(CCC(F)(F)F)C4)nc2n(C2CCCC2)c1=O", "note": "[Example 5, 6-Acetyl-8-cyclopentyl-5-methyl-2-((6-(3,3,3-trifluoropropyl)-5,6,7,8-tetrahydro-1,6-naphthyridin-2-yl)amino)pyrido[2,3-d]pyrimidin-7(8H)-one]", "values": [
      {"measurement": "IC50", "setting": "CDK4/CycD3", "value": 25, "unit": "nM"},
      {"measurement": "IC50", "setting": "CDK6/CycD3", "value": 1060, "unit": "nM"}
    ]},
    {"molecule": "CC(=O)c1c(C)c2cnc(Nc3ccc4c(n3)CCNC4)nc2n(C2CCCC2)c1=O", "note": "[Example 3, 6-Acetyl-8-cyclopentyl-5-methyl-2-((5,6,7,8-tetrahydro-1,6-naphthyridin-2-yl)amino)pyrido[2,3-d]pyrimidin-7(8H)-one]", "values": [
      {"measurement": "IC50", "setting": "CDK4/CycD3", "value": 5.7, "unit": "nM"},
      {"measurement": "bioavailability", "setting": "[1]; male, SD, in vivo", "value": 101, "unit": "%"},
      {"measurement": "AUC(0-inf)", "setting": "[1]; male, SD, in vivo, iv, 1 mg/kg", "value": 587, "unit": "ng·h/mL"},
      {"measurement": "AUC(0-t)", "setting": "[1]; male, SD, in vivo, iv, 1 mg/kg", "value": 485, "unit": "ng·h/mL"},
      {"measurement": "Cmax", "setting": "[1]; male, SD, in vivo, iv, 1 mg/kg", "value": 141, "unit": "ng/mL"},
      {"measurement": "Tmax", "setting": "[1]; male, SD, in vivo, iv, 1 mg/kg", "value": 0.42, "unit": "h"},
      {"measurement": "half-life", "setting": "[1]; male, SD, in vivo, iv, 1 mg/kg", "value": 2.93, "unit": "h"},
      {"measurement": "AUC(0-inf)", "setting": "[1]; male, SD, in vivo, po, 5 mg/kg", "value": 2970, "unit": "ng·h/mL"},
      {"measurement": "AUC(0-t)", "setting": "[1]; male, SD, in vivo, po, 5 mg/kg", "value": 2930, "unit": "ng·h/mL"},
      {"measurement": "Cmax", "setting": "[1]; male, SD, in vivo, po, 5 mg/kg", "value": 293, "unit": "ng/mL"},
      {"measurement": "Tmax", "setting": "[1]; male, SD, in vivo, po, 5 mg/kg", "value": 4, "unit": "h"},
      {"measurement": "half-life", "setting": "[1]; male, SD, in vivo, po, 5 mg/kg", "value": 3.91, "unit": "h"},
      {"measurement": "IC50", "setting": "CDK6/CycD3", "value": 47, "unit": "nM"}
    ]},
    {"molecule": "CC(=O)c1c(C)c2cnc(Nc3ccc4c(n3)CCN(C(C)=O)C4)nc2n(C2CCCC2)c1=O", "note": "[Example 6, 6-Acetyl-2-((6-acetyl-5,6,7,8-tetrahydro-1,6-naphthyridin-2-yl)amino)-8-cyclopentyl-5-methylpyrido[2,3-d]pyrimidin-7(8H)-one]", "values": [
      {"measurement": "IC50", "setting": "CDK4/CycD3", "value": 20, "unit": "nM"},
      {"measurement": "IC50", "setting": "CDK6/CycD3", "value": 65, "unit": "nM"}
    ]},
    {"molecule": "CC(=O)c1c(C)c2cnc(Nc3ccc4c(ccn4C4CCNCC4)c3)nc2n(C2CCCC2)c1=O", "note": "[Example 1, 6-Acetyl-8-cyclopentyl-5-methyl-2-((1-(piperidin-4-yl)-1H-indol-5-yl)amino)pyrido[2,3-d]pyrimidin-7(8H)-one]", "values": [
      {"measurement": "IC50", "setting": "CDK4/CycD3", "value": 6.8, "unit": "nM"},
      {"measurement": "IC50", "setting": "CDK6/CycD3", "value": 29.2, "unit": "nM"}
    ]},
    {"molecule": "CCN1CCc2nc(Nc3ncc4c(C)c(C(C)=O)c(=O)n(C5CCCC5)c4n3)ccc2C1", "note": "[Example 7, 6-Acetyl-2-((6-ethyl-5,6,7,8-tetrahydro-1,6-naphthyridin-2-yl)amino)-8-cyclopentyl-5-methylpyrido[2,3-d]pyrimidin-7(8H)-one]", "values": [
      {"measurement": "IC50", "setting": "CDK4/CycD3", "value": 19, "unit": "nM"},
      {"measurement": "IC50", "setting": "CDK6/CycD3", "value": 83, "unit": "nM"}
    ]},
    {"molecule": "CC(=O)c1c(C)c2cnc(Nc3ccc4c(n3)CCN(C3COC3)C4)nc2n(C2CCCC2)c1=O", "note": "[Example 41, 6-Acetyl-8-cyclopentyl-5-methyl-2-((6-(oxetan-3-yl)-5,6,7,8-tetrahydro-1,6-naphthyridin-2-yl)amino)pyrido[2,3-d]pyrimidin-7(8H)-one]", "values": [
      {"measurement": "IC50", "setting": "CDK4/CycD3", "value": 18, "unit": "nM"},
      {"measurement": "IC50", "setting": "CDK6/CycD3", "value": 59, "unit": "nM"}
    ]},
    {"molecule": "CC(=O)c1c(C)c2cnc(Nc3ccc4c(n3)CCN(C3CCN(C)CC3)C4)nc2n(C2CCCC2)c1=O", "note": "[Example 40, 6-Acetyl-8-cyclopentyl-5-methyl-2-((6-(1-methylpiperidin-4-yl)-5,6,7,8-tetrahydro-1,6-naphthyridin-2-yl)amino)pyrido[2,3-d]pyrimidin-7(8H)-one]", "values": [
      {"measurement": "IC50", "setting": "CDK4/CycD3", "value": 7.2, "unit": "nM"},
      {"measurement": "IC50", "setting": "CDK6/CycD3", "value": 25, "unit": "nM"}
    ]}
  ]
}
